Reference: US20110105457A1, “HETEROCYCLIC COMPOUND HAVING INHIBITORY ACTIVITY ON PI3K” (SHIONOGI & CO., LTD., priority 2008, published 2011)

Target: PI-3 kinase γ (Homo sapiens, UniProt P48736)
Assay: PI3Kγ inhibitory activity, PI3-kinase HTRF assay (Millipore)
Assay type: biochemical
Details: 0.5 h; compound 50 μM; read-out: Inhibition ratio % (50 μM)
Protocol: (Method) The PI3Kγ inhibitory activity of a compound was evaluated using PI3-kinase HTRF™ assay (Millipore) according to the following procedure.
To each well of a testing plate was added 5 μL of a compound solution comprising 10% DMSO (200 μM as the concentration of the compound), 5 μL of 40 μM phosphatidylinositol (4,5)-bisphosphate/20 mM MgCl2/10 mM DTT, and 5 μL of 80 μg/mL PI-3 kinase γ/10 mM MgCl2/5 mM DTT, and then stood for 10 minutes.
Then, 5 μL of 40 μM ATP/10 mM MgCl2/5 mM DTT was added thereto. After reacting for 30 minutes at room temperature, 5 μL of a solution comprising EDTA and biotinylated phosphatidylinositol (3,4,5)-triphosphate was added to quench the reaction.
5 μL of a detection reagent comprising a europium-labeled anti-GST antibody, the GST-tagged PH domain, and allophycocyanin-labeled streptavidin was added thereto. After 18 hours, HTRF (excitation wavelength: 330 nm, measuring wavelengths: 620 nm and 665 nm) was measured.
A value of dividing an amount of fluorescence obtained at the measuring wavelength 665 nm by an amount of fluorescence obtained at 620 nm was defined as an HTRF ratio. The HTRF ratio in the absence of a compound was defined as 100% activity, and the HTRF ratio in the absence of PI-3 kinase γ was defined as 0% activity to calculate an inhibition ratio.

Sequence of PI-3 kinase γ (P48736 whole entry): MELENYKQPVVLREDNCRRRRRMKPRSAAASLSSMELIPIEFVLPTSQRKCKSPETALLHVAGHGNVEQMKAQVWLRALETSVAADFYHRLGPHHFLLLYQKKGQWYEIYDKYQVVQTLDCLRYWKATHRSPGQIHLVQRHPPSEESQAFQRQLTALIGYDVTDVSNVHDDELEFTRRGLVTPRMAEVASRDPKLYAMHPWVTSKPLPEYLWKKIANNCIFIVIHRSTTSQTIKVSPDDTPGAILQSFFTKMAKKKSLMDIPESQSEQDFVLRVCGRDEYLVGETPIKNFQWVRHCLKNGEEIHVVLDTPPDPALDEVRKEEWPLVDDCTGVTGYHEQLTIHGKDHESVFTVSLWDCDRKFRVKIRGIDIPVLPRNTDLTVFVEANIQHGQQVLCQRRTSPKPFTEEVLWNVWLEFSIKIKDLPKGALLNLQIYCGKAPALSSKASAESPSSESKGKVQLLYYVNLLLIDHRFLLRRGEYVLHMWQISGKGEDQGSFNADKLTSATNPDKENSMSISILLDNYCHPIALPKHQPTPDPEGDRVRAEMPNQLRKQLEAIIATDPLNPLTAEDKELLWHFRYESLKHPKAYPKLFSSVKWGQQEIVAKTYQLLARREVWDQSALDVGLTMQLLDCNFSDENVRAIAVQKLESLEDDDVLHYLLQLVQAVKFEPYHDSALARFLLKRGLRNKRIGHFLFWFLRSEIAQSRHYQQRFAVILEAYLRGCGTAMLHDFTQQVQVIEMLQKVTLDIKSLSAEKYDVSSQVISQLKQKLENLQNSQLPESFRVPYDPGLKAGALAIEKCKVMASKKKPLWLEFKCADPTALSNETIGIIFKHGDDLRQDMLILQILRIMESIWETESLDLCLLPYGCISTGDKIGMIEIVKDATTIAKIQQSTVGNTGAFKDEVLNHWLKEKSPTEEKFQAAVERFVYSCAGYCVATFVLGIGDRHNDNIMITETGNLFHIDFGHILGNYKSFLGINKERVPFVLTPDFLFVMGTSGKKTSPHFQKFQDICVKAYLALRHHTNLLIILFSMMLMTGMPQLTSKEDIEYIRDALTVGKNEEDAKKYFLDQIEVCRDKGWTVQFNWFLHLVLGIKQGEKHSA

Row | SMILES | inhibition at 50 µM
1 | CNC(=O)Nc1cn2nc(-c3cn[nH]c3)ccc2n1 [Compound I-141] | 87%
2 | CNC(=O)Nc1cn2nc(-c3cncnc3)ccc2n1 [Compound I-145] | 70%
3 | CNC(=O)Nc1cn2nc(-c3cccc(OC(C)=O)c3)ccc2n1 [Compound I-146] | 64%
4 | CNC(=O)Nc1cn2nc(-c3ccncc3)ccc2n1 [Compound I-147] | 77%
5 | CNC(=O)Nc1cn2nc(-c3ccc(OC)nc3)ccc2n1 [Compound I-148] | 83%
6 | CNC(=O)Nc1cn2nc(/C=C/c3ccc(OC)cc3)ccc2n1 [Compound I-149] | 53%
7 | CNC(=O)Nc1cn2nc(-c3cccc(OCc4ccccc4)c3)ccc2n1 [Compound I-150] | 71%
8 | CNC(=O)Nc1cn2nc(-c3cccc(OC)n3)ccc2n1 [Compound I-151] | 63%
9 | CNC(=O)Nc1cn2nc(-c3cccc(O)c3)ccc2n1 [Compound I-152] | 80%
10 | CNC(=O)Nc1cn2nc(-c3cccc(C(F)(F)F)c3)ccc2n1 [Compound I-154] | 54%
11 | CNC(=O)Nc1cn2nc(-c3cccc(-c4ccccc4)c3)ccc2n1 [Compound I-155] | 57%
12 | CNC(=O)Nc1cn2nc(COc3ccccc3)ccc2n1 [Compound I-157] | 58%
13 | CNC(=O)Nc1cn2nc(NC(=O)Nc3cccc(C(=O)O)c3)ccc2n1 [Compound I-159] | 86%
14 | CNC(=O)Nc1cn2nc(NC(=O)c3ccc(C(=O)O)cc3)ccc2n1 [Compound I-160] | 77%
15 | CNC(=O)Nc1cn2nc(Nc3cccc(N(C)C)c3)ccc2n1 [Compound I-161] | 102%
16 | CNC(=O)Nc1cn2nc(Nc3cccc(C(=O)O)c3)ccc2n1 [Compound I-162] | 89%
17 | COc1cccc(-c2ccc3nc(NC(=O)CC(C)CC(C)(C)C)cn3n2)c1 (stereo not drawn) [Compound I-164] | 89%
18 | COc1cccc(-c2ccc3nc(NC(=O)c4ccccn4)cn3n2)c1 [Compound I-168] | 64%
19 | COc1cccc(-c2ccc3nc(NC(=O)c4ccncc4)cn3n2)c1 [Compound I-170] | 60%
20 | COC(=O)C[C@H](C)CC(=O)Nc1cn2nc(-c3cccc(OC)c3)ccc2n1 [Compound I-171] | 71%
21 | COc1cccc(-c2ccc3nc(NC(=O)CCC(=O)N(C)C)cn3n2)c1 [Compound I-172] | 81%
22 | COc1cccc(-c2ccc3nc(NC(=O)Cc4ccccc4OC)cn3n2)c1 [Compound I-174] | 78%
23 | COc1cccc(-c2ccc3nc(NC(=O)CNC(C)=O)cn3n2)c1 [Compound I-175] | 66%
24 | COc1cccc(-c2ccc3nc(NC(=O)c4ccc5[nH]nnc5c4)cn3n2)c1 [Compound I-177] | 85%
25 | COc1cccc(-c2ccc3nc(NC(=O)c4ccc[nH]4)cn3n2)c1 [Compound I-180] | 96%

Row | SMILES | inhibition at 50 µM
26 | COc1cccc(-c2ccc3nc(NC(=O)CC(C)(C)C)cn3n2)c1 [Compound I-186] | 78%
27 | COc1cccc(-c2ccc3nc(NC(=O)CC4CC4)cn3n2)c1 [Compound I-188] | 65%
28 | COC(=O)c1cccc(C(=O)Nc2cn3nc(-c4cccc(OC)c4)ccc3n2)c1 [Compound I-192] | 52%
29 | COc1cccc(-c2ccc3nc(NC(=O)C4CCOCC4)cn3n2)c1 [Compound I-194] | 84%
30 | COC(=O)[C@H]1CC[C@@H](C(=O)Nc2cn3nc(-c4cccc(OC)c4)ccc3n2)C1 [Compound I-195] | 82%
31 | COc1cccc(-c2ccc3nc(NC(=O)c4ccc(OC)c(OC)c4)cn3n2)c1 [Compound I-198] | 57%
32 | COc1cccc(-c2ccc3nc(NC(=O)c4cccc(N5CCOCC5)c4)cn3n2)c1 [Compound I-202] | 83%
33 | COc1cccc(-c2ccc3nc(NC(=O)c4cccc(N5CCN(C)CC5)c4)cn3n2)c1 [Compound I-203] | 68%
34 | COc1cccc(-c2ccc3nc(NC(=O)c4cccc(-n5cncn5)c4)cn3n2)c1 [Compound I-204] | 84%
35 | COc1cccc(-c2ccc3nc(NC(=O)[C@H]4CCCCN4C(=O)OC(C)(C)C)cn3n2)c1 [Compound I-207] | 64%
36 | COc1cccc(-c2ccc3nc(NC(=O)CCCN4CCCC4=O)cn3n2)c1 [Compound I-209] | 81%
37 | COc1cccc(-c2ccc3nc(NC(=O)C4CCN4C(C)(C)C)cn3n2)c1 (stereo not drawn) [Compound I-211] | 61%
38 | COc1cccc(-c2ccc3nc(NC(=O)CN(C)C(=O)OC(C)(C)C)cn3n2)c1 [Compound I-212] | 60%
39 | COCCC(=O)Nc1cn2nc(-c3cccc(OC)c3)ccc2n1 [Compound I-213] | 73%
40 | CNC(=O)Nc1cn2nc(Nc3cccc(C(N)=O)c3)ccc2n1 [Compound I-215] | 70%
41 | CNC(=O)Nc1cn2nc(Nc3cccc(C(=O)NC)c3)ccc2n1 [Compound I-216] | 55%
42 | CNC(=O)Nc1cn2nc(COc3cccc(C(=O)OC)c3)ccc2n1 [Compound I-217] | 62%
43 | CNC(=O)Nc1cn2nc(COc3cccnc3)ccc2n1 [Compound I-218] | 63%
44 | COc1cccc(-c2ccc3nc(Nc4ccccn4)cn3n2)c1 [Compound I-220] | 59%
45 | CNC(=O)Nc1cn2nc(Nc3cccc(CO)c3)ccc2n1 [Compound I-222] | 87%
46 | CCOC(=O)CNC(=O)Nc1cn2nc(-c3cncc(OC)c3)ccc2n1 [Compound I-223] | 86%
47 | COc1cccc(-c2ccc3nc(NC(=O)Nc4nccs4)cn3n2)c1 [Compound I-232] | 51%
48 | COc1cccc(-c2ccc3nc(NC(=O)NC4CCCCNC4=O)cn3n2)c1 (stereo not drawn) [Compound I-233] | 79%
49 | COc1cccc(-c2ccc3nc(NC(=O)NCc4ccco4)cn3n2)c1 [Compound I-234] | 71%
50 | COc1cccc(-c2ccc3nc(NC(=O)NCCCN4CCCC4=O)cn3n2)c1 [Compound I-235] | 78%

Row | SMILES | inhibition at 50 µM
51 | COc1cccc(-c2ccc3nc(NC(=O)NCc4ccccn4)cn3n2)c1 [Compound I-236] | 67%
52 | COc1cccc(-c2ccc3nc(NC(=O)NCCNC(C)=O)cn3n2)c1 [Compound I-237] | 74%
53 | COc1cccc(-c2ccc3nc(NC(=O)NCc4cccnc4)cn3n2)c1 [Compound I-239] | 74%
54 | COc1cccc(-c2ccc3nc(NC(=O)N4CCC[C@H]4CO)cn3n2)c1 [Compound I-240] | 73%
55 | COc1cccc(-c2ccc3nc(NC(=O)Nc4ccc5[nH]ccc5c4)cn3n2)c1 [Compound I-241] | 67%
56 | COc1cccc(-c2ccc3nc(NC(=O)Nc4ccon4)cn3n2)c1 [Compound I-243] | 78%
57 | COCCCNC(=O)Nc1cn2nc(-c3cccc(OC)c3)ccc2n1 [Compound I-244] | 87%
58 | COCCNC(=O)Nc1cn2nc(-c3cccc(OC)c3)ccc2n1 [Compound I-245] | 76%
59 | COc1cccc(-c2ccc3nc(NC(=O)N4CCC[C@H]4C(=O)OC(C)(C)C)cn3n2)c1 [Compound I-249] | 59%
60 | COc1cccc(-c2ccc3nc(NC(=O)NCc4ccoc4)cn3n2)c1 [Compound I-254] | 77%
61 | COc1cccc(-c2ccc3nc(NC(=O)NCc4nccs4)cn3n2)c1 [Compound I-255] | 75%
62 | CCOC(=O)CCCNC(=O)Nc1cn2nc(-c3cccc(OC)c3)ccc2n1 [Compound I-257] | 83%
63 | COc1cccc(-c2ccc3nc(NC(=O)NCC4COCCO4)cn3n2)c1 (stereo not drawn) [Compound I-258] | 76%
64 | CCOC(=O)CCNC(=O)Nc1cn2nc(-c3cccc(OC)c3)ccc2n1 [Compound I-259] | 68%
65 | COC[C@H]1CCCN1C(=O)Nc1cn2nc(-c3cccc(OC)c3)ccc2n1 [Compound I-261] | 59%
66 | COc1cccc(-c2ccc3nc(NC(=O)NCCNC(=O)OC(C)(C)C)cn3n2)c1 [Compound I-263] | 71%
67 | COc1cccc(-c2ccc3nc(NC(=O)NCCN)cn3n2)c1 [Compound I-264] | 67%
68 | COc1cccc(-c2ccc3nc(NC(=O)NCCC(=O)N4CCOCC4)cn3n2)c1 [Compound I-268] | 62%
69 | COc1cccc(-c2ccc3nc(NC(=O)NN4CCc5ccccc54)cn3n2)c1 [Compound I-269] | 64%
70 | COc1cccc(-c2ccc3nc(NC(=O)NC4CCN(S(=O)(=O)C(C)C)CC4)cn3n2)c1 [Compound I-271] | 53%
71 | COc1cccc(-c2ccc3nc(NC(=O)NCCC(=O)NC(C)(C)C)cn3n2)c1 [Compound I-272] | 61%
72 | COc1cccc(-c2ccc3nc(NC(=O)NCCC(=O)OC(C)(C)C)cn3n2)c1 [Compound I-273] | 85%
73 | COc1cccc(-c2ccc3nc(NC(=O)NN(C)C)cn3n2)c1 [Compound I-276] | 87%
74 | COc1cccc(-c2ccc3nc(NC(=O)NCCCN)cn3n2)c1 [Compound I-278] | 81%
75 | COc1cccc(-c2ccc3nc(NC(=O)NCCC(N)=O)cn3n2)c1 [Compound I-279] | 83%
